In patent US10005769B2, “2,3-dihydrobenzofuran-5YL compounds as DYRK kinase inhibitors” (4SC DISCOVERY GMBH, priority 2013, dated 2018):

Key:
DYRK1B = DYRK1B (Homo sapiens (Human), UniProt Q9Y463); test: DYRK1B Kinase Assay (33P ATP, DYRKtide substrate, Reaction Biology Corp.); assay type: biochemical; settings: 0.3 nM DYRK1B, 20 μM DYRKtide, 10 μM ATP, 25° C., 120 min
Description: The assay was carried out by Reaction Biology Corp., […], Pa., USA according to specifications by Reaction Biology Corp., as detailed herein below and further described in Anastassiadis et al., Nature Biotechnology, 29 (2011) 1039-1045. The substrate DYRKtide (synthetic peptide RRRFRPASPLRGPPK) was dissolved in freshly prepared Base Reaction Buffer (20 mM Hepes (pH 7.5), 10 mM MgCl2, 1 mM EGTA, 0.02% Brij35, 0.02 mg/ml BSA, 0.1 mM Na3VO4, 2 mM DTT, 1% DMSO) at a concentration of 20 μM. DYRK1B was added to the substrate solution in a concentration of 0.3 nM and gently mixed. Dilution series of the compounds according to the present invention in DMSO were prepared. Each dilution was added to a batch of the above reaction mix, followed 20 min later by addition of a mixture of ATP and ^33P ATP (specific activity 0.01 μCi/μl final) to a final concentration of 10 μM. Reactions were carried out at 25° C. for 120 min, followed by spotting the reactions onto P81 ion exchange filter paper. Unbound phosphate was removed by extensive washing of the filters in 0.75% phosphoric acid. […] IC50 values and curve fits were obtained using Prism (Graph Pad Software). DYRK1B used in the above assays are further described in the below table: [table] Exemplary compound dilution series, final concentrations of compound in the assay vessel; the individual concentrations and the range of concentrations covered by the dilution series may differ for each compound, as long as enough data points are obtained to determine the compound's IC50: DYRK 1[…].

[1] = tested on: Hedgehog signaling pathway (Gli Reporter - NIH3T3 cell line); test: Hedgehog Reporter Assay (Gli-Reporter, luciferase, mSHH stimulated); assay type: cell-based, murine; settings: Mus musculus; Gli Reporter NIH3T3 cells, 1 μg/ml mSHH, 24 h
Description: In order to investigate the potency of test compounds to inhibit the Hedgehog signaling pathway, a Gli-Reporter assay was performed. The “Gli Reporter-NIH3T3” cell line contains the firefly luciferase gene under the control of Gli responsive elements stably integrated into murine NIH3T3 cells (cells purchased from AMS Biotechnology ltd., 184 Milton Park, Abingdon OX14 4SE, U.K.). The luciferase expression correlates with activation of the hedgehog signaling pathway. This cell line is validated for its response to stimulation with murine Sonic Hedgehog and to treatment with inhibitors of the hedgehog signaling pathway. A multiplexed viability assay was used to discriminate inhibition on the pathway activity from cell toxicity. Growth Medium: DMEM (Dulbecco's Modified Eagle Medium); 10% Fetal Calf Serum; 1% Penicillin/Streptomycin; 500 μg/ml Geneticin (G418 Stock 50 mg/ml). Assay Medium: Opti-MEM® Reduced Serum Medium; 0.5% Calf Serum; 1% non-essential amino acids; 1 mM Na-pyruvate; 10 mM HEPES; 1% Penicillin/Streptomycin. 25,000 cells per well were seeded into a white 96 well plate in 100 μl growth medium and incubated over night at 37° C. and 5% CO2. After removing the supernatant the test compounds and controls were added in different concentrations in a final volume of 45 μl and incubated for 1 h at 37° C. and 5% CO2. For the stimulation of the Hedgehog pathway 5 μl of 10 μg/ml concentrated murine SHH (or mSHH; murine sonic hedgehog protein) was added to the cells. A final concentration of 1 μg/ml mSHH and 0.1% DMSO was reached per well. After incubation for 24 h at 37° C. the cells were investigated for viability and reporter activity. Viability: For the determination of the viability of the treated cells the CellTiter-FluorTM Kit from Promega comprising the fluorogenic, cell-permeant peptide substrate ([…]-aminofluorocoumarin GF-AFC was used. Roughly, only proteases of viable cells are able to cleave the GF-AFC. By this cleavage the fluorescent AFC is set free and can be detected in a fluorescence reader. For this assay 10 μl of GF-AFC substrate (CellTiter-FluorTM, Promega #G6082) was diluted in 2 ml assay buffer from the CellTiter-FluorTM Kit and 10 μl of this dilution was added per well to the cells and incubated for 30 min at 37° C. The fluorescence was measured with an excitation of 380-400 nm and an emission of 505 nm. Reporter activity: The firefly luciferase reporter activity was detected with the ONE-GloTM Luciferase Assay System from Promega. For this assay 50 μl ONE-Glo luciferase reagent (Promega #E6120, contains cell lysis buffer and luciferin) was added to each well and incubated at room temperature for 5 min. Luminescence was detected in a plate reader and served as a measure for reporter activity.

DYRK1B, sequence (Q9Y463 whole entry): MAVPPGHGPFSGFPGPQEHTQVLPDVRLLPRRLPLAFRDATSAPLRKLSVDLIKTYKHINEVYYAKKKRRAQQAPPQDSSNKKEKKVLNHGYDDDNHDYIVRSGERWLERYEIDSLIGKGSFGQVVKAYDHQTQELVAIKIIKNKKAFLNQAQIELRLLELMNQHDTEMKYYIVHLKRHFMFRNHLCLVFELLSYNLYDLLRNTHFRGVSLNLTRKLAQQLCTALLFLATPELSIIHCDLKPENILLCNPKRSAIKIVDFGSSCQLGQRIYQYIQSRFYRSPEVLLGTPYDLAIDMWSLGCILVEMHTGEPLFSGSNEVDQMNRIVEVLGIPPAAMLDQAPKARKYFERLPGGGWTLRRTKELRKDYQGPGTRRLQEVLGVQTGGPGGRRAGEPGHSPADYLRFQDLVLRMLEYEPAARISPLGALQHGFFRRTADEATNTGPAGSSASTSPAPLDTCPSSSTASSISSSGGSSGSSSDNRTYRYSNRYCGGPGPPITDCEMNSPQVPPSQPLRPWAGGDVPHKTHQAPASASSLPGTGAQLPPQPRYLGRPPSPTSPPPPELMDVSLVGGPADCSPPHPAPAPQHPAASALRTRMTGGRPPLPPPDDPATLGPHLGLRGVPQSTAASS

`O=C(Nc1nc(C(=O)NC2CC2)n[nH]1)c1csc(-c2ccc3c(c2)CCO3)n1` [Compound 25, N-(3-(Cyclopropylcarbamoyl)-1H-1,2,4-triazol-5-yl)-2-(2,3-dihydrobenzofuran-5-yl)thiazole-4-carboxamide] was tested, and the IC50 (DYRK1B) was 3.51 nM and the IC50 [1] was 1000 to 3000 nM.
In the case of `O=C(Nc1nc(-c2cccnc2)n[nH]1)c1csc(-c2ccc3c(c2)CCO3)n1` [Compound 45, 2-(2,3-Dihydrobenzofuran-5-yl)-N-(3-(pyridin-3-yl)-1H-1,2,4-triazol-5-yl)thiazole-4-carboxamide], the IC50 (DYRK1B) is reported as 2.81 nM and the IC50 [1] is reported as 1000 to 3000 nM.
Compound `O=C(Nc1nc(-c2ccco2)n[nH]1)c1csc(-c2ccc3c(c2)CCO3)n1` [Compound 46, 2-(2,3-Dihydrobenzofuran-5-yl)-N-(3-(furan-2-yl)-1H-1,2,4-triazol-5-yl)thiazole-4-carboxamide] has an IC50 (DYRK1B) of 15.3 nM and an IC50 [1] of 3000 to 10000 nM.
With `O=C(Nc1nc2cc(C(=O)N3CCN(CC4CCCO4)CC3)ccc2[nH]1)c1csc(-c2ccc3c(c2)CCO3)n1` (stereo not drawn) [Compound 8, 2-(2,3-Dihydrobenzofuran-5-yl)-N-(5-(4-((tetrahydrofuran-2-yl)methyl)piperazine-1-carbonyl)-1H-benzo[d]imidazol-2-yl)thiazole-4-carboxamide] the IC50 (DYRK1B) was 3.11 nM and the IC50 [1] was < 1000 nM.
For `Cc1n[nH]c(NC(=O)c2csc(-c3ccc4c(c3)CCO4)n2)n1` [Compound 44, 2-(2,3-Dihydrobenzofuran-5-yl)-N-(3-methyl-1H-1,2,4-triazol-5-yl)thiazole-4-carboxamide], the IC50 (DYRK1B) was 60.1 nM and the IC50 [1] was 3000 to 10000 nM.
Work on `CN1CCN(C(=O)c2nnc(NC(=O)c3csc(-c4ccc5c(c4)CCO5)n3)[nH]2)CC1` [Compound 27, 2-(2,3-Dihydrobenzofuran-5-yl)-N-(5-(4-methylpiperazine-1-carbonyl)-4H-1,2,4-triazol-3-yl)thiazole-4-carboxamide] yielded an IC50 (DYRK1B) of 49.8 nM and an IC50 [1] of 3000 to 10000 nM.
In the case of `COc1cccc(-c2c[nH]c(NC(=O)c3csc(-c4ccc5c(c4)CCO5)n3)n2)c1` [Compound 13, 2-(2,3-Dihydrobenzofuran-5-yl)-N-(4-(3-methoxyphenyl)-1H-imidazol-2-yl)thiazole-4-carboxamide], the IC50 (DYRK1B) is reported as 111 nM and the IC50 [1] is reported as 1000 to 3000 nM.
For `CS(=O)(=O)c1ccc2[nH]c(NC(=O)c3csc(-c4ccc5c(c4)CCO5)n3)nc2c1` [Compound 3, 2-(2,3-Dihydrobenzofuran-5-yl)-N-(5-(methylsulfonyl)-1H-benzo[d]imidazol-2-yl)thiazole-4-carboxamide], the IC50 (DYRK1B) was 1.49 nM and the IC50 [1] was < 1000 nM.
In the case of `COc1ccc2[nH]c(NC(=O)c3csc(-c4ccc5c(c4)CCO5)n3)nc2c1` [Compound 4, 2-(2,3-Dihydrobenzofuran-5-yl)-N-(5-methoxy-1H-benzo[d]imidazol-2-yl)thiazole-4-carboxamide], the IC50 (DYRK1B) is reported as 13.9 nM and the IC50 [1] is reported as 3000 to 10000 nM.
For `CN(C)C(=O)c1ccc2[nH]c(NC(=O)c3csc(-c4ccc5c(c4)CCO5)n3)nc2c1` [Compound 7, 2-(2,3-Dihydrobenzofuran-5-yl)-N-(5-(dimethylcarbamoyl)-1H-benzo[d]imidazol-2-yl)thiazole-4-carboxamide], the IC50 (DYRK1B) was 1.74 nM and the IC50 [1] was < 1000 nM.
`O=C(Nc1nc(SCc2ccccc2)n[nH]1)c1csc(-c2ccc3c(c2)CCO3)n1` [Compound 32, N-(3-(Benzylthio)-1H-1,2,4-triazol-5-yl)-2-(2,3-dihydrobenzofuran-5-yl)thiazole-4-carboxamide] showed an IC50 (DYRK1B) of 1350 nM and an IC50 [1] of 3000 to 10000 nM.
`O=C(Nc1nc(SCc2ccc(Cl)cc2)n[nH]1)c1csc(-c2ccc3c(c2)CCO3)n1` [Compound 33, N-(3-((4-Chlorobenzyl)thio)-1H-1,2,4-triazol-5-yl)-2-(2,3-dihydrobenzofuran-5-yl)thiazole-4-carboxamide] showed an IC50 (DYRK1B) of 337 nM.
Work on `O=C(Nc1nc(CCc2ccccc2)n[nH]1)c1csc(-c2ccc3c(c2)CCO3)n1` [Compound 36, 2-(2,3-Dihydrobenzofuran-5-yl)-N-(3-phenethyl-1H-1,2,4-triazol-5-yl)thiazole-4-carboxamide] yielded an IC50 (DYRK1B) of 112 nM.
`O=C(Nc1nnc(Br)s1)c1csc(-c2ccc3c(c2)CCO3)n1` [Compound 67, N-(5-Bromo-1,3,4-thiadiazol-2-yl)-2-(2,3-dihydro-1-benzofuran-5-yl)-1,3-thiazole-4-carboxamide] was tested, and the IC50 (DYRK1B) was 65.9 nM.
Compound `O=C(Nc1nc2cc(C(=O)c3cccs3)ccc2[nH]1)c1csc(-c2ccc3c(c2)CCO3)n1` [Compound 48, 2-(2,3-Dihydro-1-benzofuran-5-yl)-N-[5-(thiophene-2-carbonyl)-1H-1,3-benzodiazol-2-yl]-1,3-thiazole-4-carboxamide] has an IC50 (DYRK1B) of 5.57 nM.
`C=CCSc1n[nH]c(NC(=O)c2csc(-c3ccc4c(c3)CCO4)n2)n1` [Compound 39, N-(3-(Allylthio)-1H-1,2,4-triazol-5-yl)-2-(2,3-dihydrobenzofuran-5-yl)thiazole-4-carboxamide] was tested, and the IC50 (DYRK1B) was 11.9 nM.
For `O=C(Nc1cc[nH]n1)c1csc(-c2ccc3c(c2)CCO3)n1` [Compound 62, 2-(2,3-Dihydro-1-benzofuran-5-yl)-N-(1H-pyrazol-3-yl)-1,3-thiazole-4-carboxamide], the IC50 (DYRK1B) was 42.4 nM.
Work on `O=C(Nc1nc(SCCc2ccccc2)n[nH]1)c1csc(-c2ccc3c(c2)CCO3)n1` [Compound 37, 2-(2,3-Dihydrobenzofuran-5-yl)-N-(3-(phenethylthio)-1H-1,2,4-triazol-5-yl)thiazole-4-carboxamide] yielded an IC50 (DYRK1B) of 56 nM.
With `Cc1csc(NC(=O)c2csc(-c3ccc4c(c3)CCO4)n2)n1` [Compound 72, 2-(2,3-Dihydro-1-benzofuran-5-yl)-N-(4-methyl-1,3-thiazol-2-yl)-1,3-thiazole-4-carboxamide] the IC50 (DYRK1B) was 111 nM.
`O=C(Nc1ncco1)c1csc(-c2ccc3c(c2)CCO3)n1` [Compound 79, 2-(2,3-Dihydro-1-benzofuran-5-yl)-N-(1,3-oxazol-2-yl)-1,3-thiazole-4-carboxamide] gave an IC50 (DYRK1B) of 766 nM.
In the case of `O=C(Nc1nnc(N2CCCCC2)s1)c1csc(-c2ccc3c(c2)CCO3)n1` [Compound 52, 2-(2,3-Dihydro-1-benzofuran-5-yl)-N-[5-(piperidin-1-yl)-1,3,4-thiadiazol-2-yl]-1,3-thiazole-4-carboxamide], the IC50 (DYRK1B) is reported as 12.6 nM.
`COC(=O)c1n[nH]c(NC(=O)c2csc(-c3ccc4c(c3)CCO4)n2)n1` [Compound 15, Methyl 5-(2-(2,3-dihydrobenzofuran-5-yl)thiazole-4-carboxamido)-1H-1,2,4-triazole-3-carboxylate] was tested, and the IC50 (DYRK1B) was 152 nM.
`CC(C)Sc1n[nH]c(NC(=O)c2csc(-c3ccc4c(c3)CCO4)n2)n1` [Compound 24, 2-(2,3-Dihydrobenzofuran-5-yl)-N-(3-(isopropylthio)-1H-1,2,4-triazol-5-yl)thiazole-4-carboxamide] gave an IC50 (DYRK1B) of 17.8 nM.
`CCOC(=O)CSc1n[nH]c(NC(=O)c2csc(-c3ccc4c(c3)CCO4)n2)n1` [Compound 61, Ethyl 2-({5-[2-(2,3-dihydro-1-benzofuran-5-yl)-1,3-thiazole-4-amido]-1H-1,2,4-triazol-3-yl}sulfanyl)acetate] showed an IC50 (DYRK1B) of 39.1 nM.
For `CN1CCN(c2nnc(NC(=O)c3csc(-c4ccc5c(c4)CCO5)n3)s2)CC1` [Compound 57, 2-(2,3-Dihydro-1-benzofuran-5-yl)-N-[5-(4-methylpiperazin-1-yl)-1,3,4-thiadiazol-2-yl]-1,3-thiazole-4-carboxamide], the IC50 (DYRK1B) was 26.4 nM.
